Assay results published in article PMC6917776, “Discovery of a chemical probe for PRDM9” (Nature Communications, 2019).

What was measured:
[1] = tested on: RPMI-8226; assay: CelltiterGlo viability cell assay; format: cell-based
Protocol: (§1) Supplementary Figure 13. […] Viability of
(§2) (a) Multiple Myeloma lines and (b) Breast Cancer cell lines following 3 or 6 days treatment with […]
(§3) manufacturer’s instructions as described in the Supplementary methods. Data are normalized to DMSO control. N=3 biological replicates, +/- SEM. Source data are provided as a Source Data […]
(§4) CelltiterGlo viability cell assay
(§5) Cells were seeded in 96 well plates at per-well densities of 10000 (MDA-MB436, ATCC-HTB130), 15000 (8226, kind gift from Rodger Tiedemann, Princess Margaret Cancer Centre), […]
(§6) kind gift from Rodger Tiedemann, Princess Margaret Cancer Centre) and 50000 (CAL851, kind gift from Mathieu Lupien, Princess Margaret Cancer Centre) and were treated at increasing concentrations of compounds ranging from 0.01 μM to 30 μM and assessed for proliferation using CelltiterGlo (Promega) following manufacturer’s instructions, as readout on days 3 and 6 as indicated. All cell lines were mycoplasma negative, as determined by MycoAlert™ Mycoplasma Detection Kit(Lonza). […]

[2] = tested on: MDA-MB-436; assay: CelltiterGlo viability cell assay; format: cell-based
Protocol: as §1, §2, §3, §4, §5, §6

Compound: COc1cc(OC)cc(-c2noc(N3CCN(C)C4(CCN(c5ccccc5)CC4)C3)n2)c1 [MRK-740N]
- viability Average ([1]; 8226, 3 day, 0.03 uM): 99.22
- viability Replicate 1 ([1]; 8226, 3 day, 0.03 uM): 99.66
- viability Replicate 2 ([1]; 8226, 3 day, 0.03 uM): 95.69
- viability Replicate 3 ([1]; 8226, 3 day, 0.03 uM): 102.30
- viability Average ([1]; 8226, 3 day, 0.1 uM): 101.66
- viability Replicate 1 ([1]; 8226, 3 day, 0.1 uM): 102.47
- viability Replicate 2 ([1]; 8226, 3 day, 0.1 uM): 99.05
- viability Replicate 3 ([1]; 8226, 3 day, 0.1 uM): 103.47
- viability Average ([1]; 8226, 3 day, 0.3 uM): 100.14
- viability Replicate 1 ([1]; 8226, 3 day, 0.3 uM): 98.42
- viability Replicate 2 ([1]; 8226, 3 day, 0.3 uM): 99.23
- viability Replicate 3 ([1]; 8226, 3 day, 0.3 uM): 102.78
- viability Average ([1]; 8226, 3 day, 1 uM): 99.15
- viability Replicate 1 ([1]; 8226, 3 day, 1 uM): 95.47
- viability Replicate 2 ([1]; 8226, 3 day, 1 uM): 99.58
- viability Replicate 3 ([1]; 8226, 3 day, 1 uM): 102.40
- viability Average ([1]; 8226, 3 day, 3 uM): 100.92
- viability Replicate 1 ([1]; 8226, 3 day, 3 uM): 100.27
- viability Replicate 2 ([1]; 8226, 3 day, 3 uM): 100.06
- viability Replicate 3 ([1]; 8226, 3 day, 3 uM): 102.42
- viability Average ([1]; 8226, 3 day, 9.5 uM): 90.08
- viability Replicate 1 ([1]; 8226, 3 day, 9.5 uM): 80.69
- viability Replicate 2 ([1]; 8226, 3 day, 9.5 uM): 88.67
- viability Replicate 3 ([1]; 8226, 3 day, 9.5 uM): 100.87
- viability Average ([1]; 8226, 3 day, 30 uM): 40.55
- viability Replicate 1 ([1]; 8226, 3 day, 30 uM): 58.77
- viability Replicate 2 ([1]; 8226, 3 day, 30 uM): 22.31
- viability Replicate 3 ([1]; 8226, 3 day, 30 uM): 40.58
- viability Average ([1]; 8226, 6 day, 0.01 uM): 98.95
- viability Replicate 1 ([1]; 8226, 6 day, 0.01 uM): 98.27
- viability Replicate 2 ([1]; 8226, 6 day, 0.01 uM): 97.90
- viability Replicate 3 ([1]; 8226, 6 day, 0.01 uM): 100.68
- viability Average ([1]; 8226, 6 day, 0.03 uM): 98.07
- viability Replicate 1 ([1]; 8226, 6 day, 0.03 uM): 95.77
- viability Replicate 2 ([1]; 8226, 6 day, 0.03 uM): 97.65
- viability Replicate 3 ([1]; 8226, 6 day, 0.03 uM): 100.80
- viability Average ([1]; 8226, 6 day, 0.1 uM): 98.68
- viability Replicate 1 ([1]; 8226, 6 day, 0.1 uM): 95.86
- viability Replicate 2 ([1]; 8226, 6 day, 0.1 uM): 100.16
- viability Replicate 3 ([1]; 8226, 6 day, 0.1 uM): 100.02
- viability Average ([1]; 8226, 6 day, 0.3 uM): 96.98
- viability Replicate 1 ([1]; 8226, 6 day, 0.3 uM): 94.57
- viability Replicate 2 ([1]; 8226, 6 day, 0.3 uM): 97.72
- viability Replicate 3 ([1]; 8226, 6 day, 0.3 uM): 98.63
- viability Average ([1]; 8226, 6 day, 1 uM): 97.56
- viability Replicate 1 ([1]; 8226, 6 day, 1 uM): 97.46
- viability Replicate 2 ([1]; 8226, 6 day, 1 uM): 98.37
- viability Replicate 3 ([1]; 8226, 6 day, 1 uM): 96.84
- viability Average ([1]; 8226, 6 day, 3 uM): 100.28
- viability Replicate 1 ([1]; 8226, 6 day, 3 uM): 98.97
- viability Replicate 2 ([1]; 8226, 6 day, 3 uM): 101.92
- viability Replicate 3 ([1]; 8226, 6 day, 3 uM): 99.95
- viability Average ([1]; 8226, 6 day, 9.5 uM): 107.21
- viability Replicate 1 ([1]; 8226, 6 day, 9.5 uM): 106.83
- viability Replicate 2 ([1]; 8226, 6 day, 9.5 uM): 105.76
- viability Replicate 3 ([1]; 8226, 6 day, 9.5 uM): 109.04
- viability Average ([1]; 8226, 6 day, 30 uM): 80.58
- viability Replicate 1 ([1]; 8226, 6 day, 30 uM): 102.03
- viability Replicate 2 ([1]; 8226, 6 day, 30 uM): 55.75
- viability Replicate 3 ([1]; 8226, 6 day, 30 uM): 83.98
- viability Average ([2]; MDA MB436, 3 day, 0.01 uM): 104.47
- viability Replicate 1 ([2]; MDA MB436, 3 day, 0.01 uM): 104.85
- viability Replicate 2 ([2]; MDA MB436, 3 day, 0.01 uM): 108.92
- viability Replicate 3 ([2]; MDA MB436, 3 day, 0.01 uM): 99.63
- viability Average ([2]; MDA MB436, 3 day, 0.03 uM): 103.60
- viability Replicate 1 ([2]; MDA MB436, 3 day, 0.03 uM): 101.98
- viability Replicate 2 ([2]; MDA MB436, 3 day, 0.03 uM): 106.92
- viability Replicate 3 ([2]; MDA MB436, 3 day, 0.03 uM): 101.91
- viability Average ([2]; MDA MB436, 3 day, 0.1 uM): 104.90
- viability Replicate 1 ([2]; MDA MB436, 3 day, 0.1 uM): 108.03
- viability Replicate 2 ([2]; MDA MB436, 3 day, 0.1 uM): 99.50
- viability Replicate 3 ([2]; MDA MB436, 3 day, 0.1 uM): 107.16
- viability Average ([2]; MDA MB436, 3 day, 0.3 uM): 109.23
- viability Replicate 1 ([2]; MDA MB436, 3 day, 0.3 uM): 113.13
- viability Replicate 2 ([2]; MDA MB436, 3 day, 0.3 uM): 103.55
- viability Replicate 3 ([2]; MDA MB436, 3 day, 0.3 uM): 111.02
- viability Average ([2]; MDA MB436, 3 day, 1 uM): 109.50
- viability Replicate 1 ([2]; MDA MB436, 3 day, 1 uM): 114.19
- viability Replicate 2 ([2]; MDA MB436, 3 day, 1 uM): 107.46
- viability Replicate 3 ([2]; MDA MB436, 3 day, 1 uM): 106.85
- viability Average ([2]; MDA MB436, 3 day, 3 uM): 108.81
- viability Replicate 1 ([2]; MDA MB436, 3 day, 3 uM): 105.69
- viability Replicate 2 ([2]; MDA MB436, 3 day, 3 uM): 108.01
- viability Replicate 3 ([2]; MDA MB436, 3 day, 3 uM): 112.73
- viability Average ([2]; MDA MB436, 3 day, 9.5 uM): 105.69
- viability Replicate 1 ([2]; MDA MB436, 3 day, 9.5 uM): 111.14
- viability Replicate 2 ([2]; MDA MB436, 3 day, 9.5 uM): 101.16
- viability Replicate 3 ([2]; MDA MB436, 3 day, 9.5 uM): 104.77
- viability Average ([2]; MDA MB436, 3 day, 30 uM): 65.33
- viability Replicate 1 ([2]; MDA MB436, 3 day, 30 uM): 67.81
- viability Replicate 2 ([2]; MDA MB436, 3 day, 30 uM): 62.64
- viability Replicate 3 ([2]; MDA MB436, 3 day, 30 uM): 65.53
- viability Average ([2]; MDA MB436, 6 day, 0.01 uM): 103.60
- viability Replicate 1 ([2]; MDA MB436, 6 day, 0.01 uM): 113.45
